The record followed here is patent publication US20090093460A1, “Compositions” (AstraZeneca AB, priority 2003, published 2009).

Read-outs that look alike come from different tables or passages of the source.

The inhibition is the relative decrease from the control value, in per cent. A high value points to a response far below the control. In general, IC50 refers to the concentration that inhibits the measured activity by half. Read a low IC50 as greater potency. In general, EC50 refers to the concentration that produces a half-maximal response. Low readings indicate an effect from little substance, high ones a need for much substance.

For one series, the target named is T1, Adrenergic α1B (Rattus norvegicus, UniProt P15823).
T1 construct: 203200
T1 sequence (P15823 1-515): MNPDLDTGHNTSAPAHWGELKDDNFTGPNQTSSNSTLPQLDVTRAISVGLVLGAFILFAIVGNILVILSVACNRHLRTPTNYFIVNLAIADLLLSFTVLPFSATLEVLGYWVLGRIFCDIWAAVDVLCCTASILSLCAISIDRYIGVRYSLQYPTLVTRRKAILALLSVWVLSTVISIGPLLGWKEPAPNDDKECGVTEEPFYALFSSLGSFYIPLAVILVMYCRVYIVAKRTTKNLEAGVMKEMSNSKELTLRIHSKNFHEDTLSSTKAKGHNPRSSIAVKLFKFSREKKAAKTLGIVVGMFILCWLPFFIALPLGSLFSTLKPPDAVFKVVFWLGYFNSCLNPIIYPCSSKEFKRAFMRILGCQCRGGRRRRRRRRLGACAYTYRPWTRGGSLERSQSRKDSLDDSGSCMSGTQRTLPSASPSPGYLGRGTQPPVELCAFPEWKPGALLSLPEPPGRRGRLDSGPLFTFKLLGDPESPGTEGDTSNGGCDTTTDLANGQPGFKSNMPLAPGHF
Briefly: Radioligand binding 203200 Adrenergic α1B. The source says: Receptor binding methods, (α-adrenergic subtype specific, are provided below.

For a further series, the target named is T2, Adrenergic α2B (Homo sapiens, UniProt P18089).
T2 sequence (P18089 1-450): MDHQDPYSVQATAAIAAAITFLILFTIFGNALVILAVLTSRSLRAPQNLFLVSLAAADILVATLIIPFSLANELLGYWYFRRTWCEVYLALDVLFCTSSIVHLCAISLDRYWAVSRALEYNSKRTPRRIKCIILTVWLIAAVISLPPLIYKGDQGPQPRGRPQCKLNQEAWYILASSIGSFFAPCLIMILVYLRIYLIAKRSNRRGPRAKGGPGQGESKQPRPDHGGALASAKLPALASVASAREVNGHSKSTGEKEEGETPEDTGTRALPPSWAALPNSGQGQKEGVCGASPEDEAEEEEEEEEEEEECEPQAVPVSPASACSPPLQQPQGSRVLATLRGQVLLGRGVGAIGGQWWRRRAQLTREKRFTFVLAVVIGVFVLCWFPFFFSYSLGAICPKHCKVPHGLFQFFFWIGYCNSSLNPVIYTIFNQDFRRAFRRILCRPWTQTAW
The series is described as follows: Radioligand binding Adrenergic α2B.

A further series concerns the target T3, Adrenergic α2C (Homo sapiens, UniProt P18825).
T3 sequence (P18825 1-462): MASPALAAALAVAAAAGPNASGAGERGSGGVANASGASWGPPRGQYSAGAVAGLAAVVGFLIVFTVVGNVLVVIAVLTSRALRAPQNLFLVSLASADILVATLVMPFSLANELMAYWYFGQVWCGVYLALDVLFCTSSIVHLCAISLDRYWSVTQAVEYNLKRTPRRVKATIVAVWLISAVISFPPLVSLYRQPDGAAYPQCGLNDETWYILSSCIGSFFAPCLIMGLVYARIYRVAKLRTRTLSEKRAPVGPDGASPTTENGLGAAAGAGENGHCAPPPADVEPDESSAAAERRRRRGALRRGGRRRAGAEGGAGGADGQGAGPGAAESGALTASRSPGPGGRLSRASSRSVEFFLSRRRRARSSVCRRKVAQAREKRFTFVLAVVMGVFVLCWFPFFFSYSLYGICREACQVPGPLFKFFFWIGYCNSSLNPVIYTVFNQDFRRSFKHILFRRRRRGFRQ
The series is described as follows: Radioligand binding Adrenergic α2C.

A short description of a further series: Brain exposure in rats. The format is in vivo. The settings on record: rat; for Kp at 1 h: brain. As for the experimental part: Brain exposure was measured in rats. For concentrations of 11-piperazin-1-yldibenzo[b,f][1,4]thiazepine in brain, rats were dosed either po or iv (n=3 per dose route). At one hour after compound administration blood and brain samples were obtained and then processed for analysis using HPLC/MS to measure concentrations of 11-piperazin-1-yldibenzo[b,f][ 1,4]thiazepine.

The target in a further series is T4, D1 receptors (Homo sapiens, UniProt P21728).
T4 construct: from tissue; host or cells: brain of living primate subjects (PET)
T4 sequence (P21728 whole entry): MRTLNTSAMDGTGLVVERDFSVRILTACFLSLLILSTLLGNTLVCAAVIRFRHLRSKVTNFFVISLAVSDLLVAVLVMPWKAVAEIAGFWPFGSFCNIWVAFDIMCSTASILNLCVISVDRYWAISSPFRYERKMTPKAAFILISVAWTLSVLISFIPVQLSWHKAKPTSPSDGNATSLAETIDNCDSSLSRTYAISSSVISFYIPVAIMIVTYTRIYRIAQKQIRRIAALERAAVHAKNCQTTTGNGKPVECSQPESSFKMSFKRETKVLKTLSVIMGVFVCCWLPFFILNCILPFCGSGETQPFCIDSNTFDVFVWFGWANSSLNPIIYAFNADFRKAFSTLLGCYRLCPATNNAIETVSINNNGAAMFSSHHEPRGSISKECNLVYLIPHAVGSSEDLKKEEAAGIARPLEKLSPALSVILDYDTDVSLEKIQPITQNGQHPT
The series is described as follows: PET scans of primate subjects, D1 occupancy. It is filed as in vivo. As to conditions: preliminary PET scans. The source says: The compound of Formula I is a dibenzothiazepine that has shown antidopaminergic activity.

The target in another series is T5, D2 receptors (Homo sapiens, UniProt P14416).
T5 construct: from tissue; host or cells: brain of living primate subjects (PET)
T5 sequence (P14416 whole entry): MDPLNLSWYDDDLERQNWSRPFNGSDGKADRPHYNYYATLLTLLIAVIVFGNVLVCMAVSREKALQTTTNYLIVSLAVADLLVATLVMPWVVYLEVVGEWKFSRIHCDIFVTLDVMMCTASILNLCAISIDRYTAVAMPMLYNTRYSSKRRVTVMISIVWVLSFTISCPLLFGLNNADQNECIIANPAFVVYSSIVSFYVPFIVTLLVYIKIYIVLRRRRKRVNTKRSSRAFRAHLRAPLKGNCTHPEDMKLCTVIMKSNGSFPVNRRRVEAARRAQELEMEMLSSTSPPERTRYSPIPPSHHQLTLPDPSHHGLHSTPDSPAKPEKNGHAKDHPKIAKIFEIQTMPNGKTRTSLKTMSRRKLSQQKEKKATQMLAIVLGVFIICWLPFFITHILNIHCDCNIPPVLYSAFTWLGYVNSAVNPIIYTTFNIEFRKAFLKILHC
Also noted: species or system primate. The settings on record: in vivo.

A further series concerns the target T6, 5-HT1A receptors (Homo sapiens, UniProt P08908).
T6 sequence (P08908 1-422): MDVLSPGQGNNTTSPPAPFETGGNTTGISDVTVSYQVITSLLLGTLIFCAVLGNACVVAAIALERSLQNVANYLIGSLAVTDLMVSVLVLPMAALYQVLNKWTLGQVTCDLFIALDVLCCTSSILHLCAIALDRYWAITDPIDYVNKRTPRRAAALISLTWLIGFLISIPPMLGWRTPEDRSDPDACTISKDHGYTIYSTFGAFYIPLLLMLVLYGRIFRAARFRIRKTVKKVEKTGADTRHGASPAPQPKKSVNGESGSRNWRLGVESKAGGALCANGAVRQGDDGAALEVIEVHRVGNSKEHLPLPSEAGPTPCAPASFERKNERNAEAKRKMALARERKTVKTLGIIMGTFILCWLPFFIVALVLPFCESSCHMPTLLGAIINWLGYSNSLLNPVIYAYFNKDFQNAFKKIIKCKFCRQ
The series is described as follows: In vitro assay of 5HT1A agonism (GTPγ35S, CHO membranes). The arrangement: expressed in transfected cells; host or cells: CHO. It is filed as biochemical. As for the experimental part: CHO membranes (10 μg protein) expressing human 5-HT1A receptors were incubated in 100 μl of 20 mM HEPES, pH 7.4 assay buffer containing 10 mM MgCl2, 100 mM NaCl, 0.1% BSA, 20 μM GDP, 200 μg WGA-PVT beads (Amersham RPNQ0001), 200 pM GTPγ^35S (Perkin Elmer NEG-030H). 11-piperazin-1-yldibenzo[b,f][1,4]thiazepine was incubated with the above at 11 different concentrations varying from 10 μM to 170 pM in Packard OptiPlates with shaking for 1.5 hours at room temperature. […] The plates were centrifuged to settle the beads and measured in a Parkard TopCount.

Regarding `c1ccc2c(c1)N=C(N1CCNCC1)c1ccccc1S2` [11-piperazin-1-yldibenzo[b,f][1,4]thiazepine], the n came out at 1.1 ± 0.024 on Adrenergic α1B, 0.902 ± 0.055 on Adrenergic α2B and 1.1 ± 0.079 at Adrenergic α2C. At Adrenergic α1B (0.1 μM), this compound yielded an inhibition at 0.1 µM of 50%. Further, the Ki was determined as 75 ± 9 nM on Adrenergic α1B (read-out: ki); 75 nM on Adrenergic α1B (α1B, read-out: Affinity); 206 ± 44.5 nM on Adrenergic α2B; 820 ± 146 nM on Adrenergic α2C (read-out: ki); 820 nM on Adrenergic α2C (α2C, read-out: Affinity). For the same compound, the IC50 was 451 ± 97 nM on Adrenergic α2B and 5640 ± 1010 nM at Adrenergic α2C. At Adrenergic α2B (1 μM), this compound showed an inhibition at 1 µM of 62%. At Adrenergic α2C (10 μM), the inhibition at 10 µM came out at 58%. Moreover, the Kp at 1 h was determined as 3.4 in “Brain exposure in rats” (30 umol/kg, one hour after 30 μmol/kg po, read-out: brain/plasma exposure ratio) and 4.6 in “Brain exposure in rats” (after iv dosing, read-out: brain:plasma concentration ratio). Further, the concentration at 1 h in “Brain exposure in rats” (plasma, 30 μmol/kg, heading: average concentration in plasma, one hour after 30 μmol/kg po) was determined as 658 nM. Besides, the “receptor occupancy by PET” value at D1 receptors and at D2 receptors was “occupies” in each case. Besides, the concentration giving a half-maximal response (EC50) at 5-HT1A receptors (GTPγ35S, CHO membranes) amounted to 310 nM. Besides, the Emax at 5-HT1A receptors (read-out: maximum efficacy) was 66%.
